Experimental data as given in ChEMBL document CHEMBL1671637, “Development, stability, and molecular mechanisms of macrolide resistance in Campylobacter jejuni” (2008).
≈ marks a conversion by molar mass, not a printed value.

Key:
Assay type in all cases: functional
[1] = test system: Campylobacter jejuni; assay: Antimicrobial activity against Campylobacter jejuni JL299 harboring protein L22 with insertion of amino acid TSH at position 98 selected at 4 to 16 times MIC after 3 to 4 days by agar dilution method
[2] = test system: Campylobacter jejuni; assay: Antimicrobial activity against Campylobacter jejuni DC5 harboring protein L4 G74D mutant by agar dilution method
[3] = test system: Campylobacter jejuni; assay: Antimicrobial activity against Campylobacter jejuni JL283 selected at 4 to 16 times MIC after 3 to 4 days by agar dilution method
[4] = test system: Campylobacter jejuni; assay: Antimicrobial activity against Campylobacter jejuni DC6 infected in 3 days old chicken by agar dilution method
[5] = test system: Campylobacter jejuni; assay: Antimicrobial activity against Campylobacter jejuni DC2 infected in 15 days old chicken by agar dilution method in presence of feed with tylosin
[6] = test system: Campylobacter jejuni; assay: Antimicrobial activity against Campylobacter jejuni DC26 harboring protein L4 G74D mutant by agar dilution method
[7] = test system: Campylobacter jejuni; assay: Antimicrobial activity against Campylobacter jejuni JL276 selected at 4 ug/ml after 3 to 4 days by agar dilution method
[8] = test system: Campylobacter jejuni; assay: Antimicrobial activity against Campylobacter jejuni DC28 harboring protein L4 G74D mutant by agar dilution method
[9] = test system: Campylobacter jejuni; assay: Antimicrobial activity against Campylobacter jejuni NCTC 11168 by agar dilution method
[10] = test system: Campylobacter jejuni; assay: Antimicrobial activity against Campylobacter jejuni DC2 infected in 3 days old chicken by agar dilution method
[11] = test system: Campylobacter jejuni; assay: Antimicrobial activity against Campylobacter jejuni DC9 harboring 23S rRNA A2074G mutant by agar dilution method
[12] = test system: Campylobacter jejuni; assay: Antimicrobial activity against Campylobacter jejuni JL291 harboring protein L22 with insertion of amino acid TSH at position 98 selected at 4 to 16 times MIC after 3 to 4 days by agar dilution method
[13] = test system: Campylobacter jejuni; assay: Antimicrobial activity against Campylobacter jejuni DC27 harboring protein L4 G74D mutant by agar dilution method
[14] = test system: Campylobacter jejuni; assay: Antimicrobial activity against Campylobacter jejuni DC4 by agar dilution method
[15] = test system: Campylobacter jejuni; assay: Antimicrobial activity against Campylobacter jejuni DC26 infected in 15 days old chicken by agar dilution method in presence of food with tylosin
[16] = test system: Campylobacter jejuni; assay: Antimicrobial activity against Campylobacter jejuni JL290 harboring protein L22 with insertion of amino acid TSH at position 98 selected at 8 ug/ml after 3 to 4 days by agar dilution method
[17] = test system: Campylobacter jejuni; assay: Antimicrobial activity against Campylobacter jejuni JL306 harboring protein L22 with insertion of amino acid TSH at position 98 selected at 4 to 16 times MIC after 3 to 4 days by agar dilution method
[18] = test system: Campylobacter jejuni; assay: Antimicrobial activity against Campylobacter jejuni harboring mutation in cmeB by agar dilution method relative to wild type Campylobacter jejuni
[19] = test system: Campylobacter jejuni; assay: Antimicrobial activity against Campylobacter jejuni JL295 selected at 2 ug/ml after 3 to 4 days by agar dilution method
[20] = test system: Campylobacter jejuni; assay: Antimicrobial activity against Campylobacter jejuni DC15 harboring protein L4 G74D mutant by agar dilution method
[21] = test system: Campylobacter jejuni; assay: Antimicrobial activity against Campylobacter jejuni DC31 harboring 23S rRNA A2074G mutant by agar dilution method
[22] = test system: Campylobacter jejuni; assay: Antimicrobial activity against Campylobacter jejuni DC8 harboring protein L4 G74D mutant by agar dilution method
[23] = test system: Campylobacter jejuni; assay: Antimicrobial activity against Campylobacter jejuni JL304 harboring protein L22 with insertion of amino acid TSH at position 98 selected at 4 to 16 times MIC after 3 to 4 days by agar dilution method
[24] = test system: Campylobacter jejuni; assay: Antimicrobial activity against Campylobacter jejuni DC24 harboring protein L4 G74D mutant by agar dilution method
[25] = test system: Campylobacter jejuni; assay: Antimicrobial activity against Campylobacter jejuni DC2 infected in 15 days old chicken by agar dilution method
[26] = test system: Campylobacter jejuni; assay: Antimicrobial activity against Campylobacter jejuni JL302 harboring protein L22 with insertion of amino acid TSH at position 98 selected at 4 to 16 times MIC after 3 to 4 days by agar dilution method
[27] = test system: Campylobacter jejuni; assay: Antimicrobial activity against Campylobacter jejuni DC2 harboring protein L4 G74D mutant by agar dilution method
[28] = test system: Campylobacter jejuni; assay: Antimicrobial activity against Campylobacter jejuni DC21 harboring protein L4 G74D mutant by agar dilution method
[29] = test system: Campylobacter jejuni; assay: Antimicrobial activity against Campylobacter jejuni DC37 harboring protein L4 G74D mutant by agar dilution method
[30] = test system: Campylobacter jejuni; assay: Antimicrobial activity against Campylobacter jejuni JL279 selected at 4 to 16 times MIC after 3 to 4 days by agar dilution method
[31] = test system: Campylobacter jejuni; assay: Antimicrobial activity against Campylobacter jejuni JL297 selected at 4 to 16 times MIC after 3 to 4 days by agar dilution method
[32] = test system: Campylobacter jejuni; assay: Antimicrobial activity against Campylobacter jejuni DC39 harboring protein L4 G74D and G57V mutant by agar dilution method
[33] = test system: Campylobacter jejuni; assay: Antimicrobial activity against Campylobacter jejuni JL277 selected at 4 to 16 times MIC after 3 to 4 days by agar dilution method
[34] = test system: Campylobacter jejuni; assay: Antimicrobial activity against Campylobacter jejuni DC23 harboring protein L4 G74D mutant by agar dilution method
[35] = test system: Campylobacter jejuni; assay: Antimicrobial activity against Campylobacter jejuni JL288 harboring 23S rRNA A2074C mutant selected at 4 to 16 times MIC after 3 to 4 days by agar dilution method
[36] = test system: Campylobacter jejuni; assay: Antimicrobial activity against Campylobacter jejuni DC18 harboring protein L4 G74D mutant by agar dilution method
[37] = test system: Campylobacter jejuni; assay: Antimicrobial activity against Campylobacter jejuni DC30 by agar dilution method
[38] = test system: Campylobacter jejuni; assay: Antimicrobial activity against Campylobacter jejuni JL296 selected at 4 to 16 times MIC after 3 to 4 days by agar dilution method

CC[C@H]1OC(=O)[C@H](C)[C@@H](O[C@H]2C[C@@](C)(OC)[C@@H](O)[C@H](C)O2)[C@H](C)[C@@H](O[C@@H]2O[C@H](C)C[C@H](N(C)C)[C@H]2O)[C@](C)(O)C[C@@H](C)C(=O)[C@H](C)[C@@H](O)[C@]1(C)O [ERYTHROMYCIN]
MIC [1]: 64 µg/mL (≈ 87.2 µM)
MIC [2]: 8 µg/mL (≈ 10.9 µM)
MIC [3]: 64 µg/mL (≈ 87.2 µM)
MIC [4]: > 512 µg/mL
MIC [5]: 32 µg/mL
MIC [6]: 64 µg/mL (≈ 87.2 µM)
MIC [7]: 16 µg/mL (≈ 21.8 µM)
MIC [8]: 8 µg/mL (≈ 10.9 µM)
MIC [9]: 1 µg/mL (≈ 1.36 µM)
MIC [10]: 32 µg/mL (≈ 43.6 µM)
MIC [11]: > 512 µg/mL
MIC [12]: 32 µg/mL (≈ 43.6 µM)
MIC [13]: 64 µg/mL (≈ 87.2 µM)
MIC [14]: 8 µg/mL (≈ 10.9 µM)
MIC [15]: 64 µg/mL
MIC [16]: 32 µg/mL (≈ 43.6 µM)
MIC [17]: 64 µg/mL (≈ 87.2 µM)
fold change (FC) [18]: 8
MIC [19]: 8 µg/mL (≈ 10.9 µM)
MIC [20]: 32 µg/mL (≈ 43.6 µM)
MIC [21]: > 512 µg/mL
MIC [22]: 32 µg/mL (≈ 43.6 µM)
MIC [23]: 256 µg/mL (≈ 349 µM)
MIC [24]: 32 µg/mL (≈ 43.6 µM)
MIC [25]: 32 µg/mL (≈ 43.6 µM)
MIC [26]: 512 µg/mL (≈ 698 µM)
MIC [27]: 32 µg/mL (≈ 43.6 µM)
MIC [28]: 32 µg/mL (≈ 43.6 µM)
MIC [29]: 128 µg/mL (≈ 174 µM)
MIC [30]: 8 µg/mL (≈ 10.9 µM)
MIC [31]: 8 µg/mL (≈ 10.9 µM)
MIC [32]: 256 µg/mL (≈ 349 µM)
MIC [33]: 8 µg/mL (≈ 10.9 µM)
MIC [34]: 64 µg/mL (≈ 87.2 µM)
MIC [35]: > 512 µg/mL
MIC [36]: 16 µg/mL (≈ 21.8 µM)
MIC [37]: 1 µg/mL (≈ 1.36 µM)
MIC [38]: 8 µg/mL (≈ 10.9 µM)
